Legend:
Assay type in all cases: functional
A549 = assay: Cytotoxicity against human A549 cells assessed as growth inhibition at 10 uM after 48 hrs by coulter counter analysis; settings: A549, 48 h, read-out: GI
MOLT-4 = assay: Cytotoxicity against human MOLT4 cells assessed as growth inhibition at 10 uM after 48 hrs by coulter counter analysis; settings: MOLT-4, 48 h, read-out: GI
Malme-3M = assay: Cytotoxicity against human MALME-3M cells assessed as growth inhibition at 10 uM after 48 hrs by coulter counter analysis; settings: read-out: GI
SW-620 = assay: Cytotoxicity against human SW620 cells assessed as growth inhibition at 10 uM after 48 hrs by coulter counter analysis; settings: SW-620, 48 h, read-out: GI
A498 = assay: Cytotoxicity against human A498 cells assessed as growth inhibition at 10 uM after 48 hrs by coulter counter analysis; settings: A498, 48 h, read-out: GI
MCF7 = assay: Cytotoxicity against human MCF7 cells assessed as growth inhibition at 10 uM after 48 hrs by coulter counter analysis; settings: MCF7, 48 h, read-out: GI
SF-539 = assay: Cytotoxicity against human SF539 cells assessed as growth inhibition at 10 uM after 48 hrs by coulter counter analysis; settings: SF-539, 48 h, read-out: GI
NCI-H522 = assay: Cytotoxicity against human NCI-H522 cells assessed as growth inhibition at 10 uM after 48 hrs by coulter counter analysis; settings: NCI-H522, 48 h, read-out: GI
HL-60(TB) = assay: Cytotoxicity against human HL-60(TB) cells assessed as growth inhibition at 10 uM after 48 hrs by coulter counter analysis; settings: HL-60, 48 h, read-out: GI
OVCAR-5 = assay: Cytotoxicity against human OVCAR5 cells assessed as growth inhibition at 10 uM after 48 hrs by coulter counter analysis; settings: OVCAR-5, 48 h, read-out: GI
T47D = assay: Cytotoxicity against human T47D cells assessed as growth inhibition at 10 uM after 48 hrs by coulter counter analysis; settings: read-out: GI
MDA-MB-231 = assay: Cytotoxicity against human MDA-MB-231 cells assessed as growth inhibition at 10 uM after 48 hrs by coulter counter analysis; settings: MDA-MB-231, 48 h, read-out: GI
SK-OV-3 = assay: Cytotoxicity against human SKOV3 cells assessed as growth inhibition at 10 uM after 48 hrs by coulter counter analysis; settings: SK-OV-3, 48 h, read-out: GI
RXF 393 = assay: Cytotoxicity against human RXF393 cells assessed as growth inhibition at 10 uM after 48 hrs by coulter counter analysis; settings: RXF 393, 48 h, read-out: GI
SN12C = assay: Cytotoxicity against human SN12C cells assessed as growth inhibition at 10 uM after 48 hrs by coulter counter analysis; settings: read-out: GI
SNB-19 = assay: Cytotoxicity against human SNB19 cells assessed as growth inhibition at 10 uM after 48 hrs by coulter counter analysis; settings: SNB-19, 48 h, read-out: GI
BT-549 = assay: Cytotoxicity against human BT549 cells assessed as growth inhibition at 10 uM after 48 hrs by coulter counter analysis; settings: BT-549, 48 h, read-out: GI
[1] = Cytotoxicity against human melanoma cells after 48 hrs by coulter counter analysis; settings: Melanoma cell
[2] = Cytotoxicity against human ovarian cancer cells after 48 hrs by coulter counter analysis; settings: Cancer cell lines
[3] = Cytotoxicity against human leukemia cells after 48 hrs by coulter counter analysis; settings: Leukemia cell
[4] = Cytotoxicity against human CNS cancer cells after 48 hrs by coulter counter analysis; settings: Cancer cell lines
[5] = Cytotoxicity against human renal cancer cells after 48 hrs by coulter counter analysis; settings: Cancer cell lines
[6] = Cytotoxicity against human prostate cancer cells after 48 hrs by coulter counter analysis; settings: Cancer cell lines
[7] = Cytotoxicity against human non-small cell lung cancer cells after 48 hrs by coulter counter analysis; settings: Cancer cell lines
[8] = Cytotoxicity against human colon cancer cells after 48 hrs by coulter counter analysis; settings: Cancer cell lines
[9] = Cytotoxicity against human breast cancer cells after 48 hrs by coulter counter analysis; settings: Cancer cell lines
[10] = read-out: LC50 (the source's name)

COc1cc(NC(=O)CCSc2nc3ccccc3c(=O)n2CCc2ccccc2)cc(OC)c1OC
inhibition of growth at 10 µM (A549): 29% | inhibition of growth at 10 µM (MOLT-4): 40% | inhibition of growth at 10 µM (Malme-3M): 77% | inhibition of growth at 10 µM (SW-620): 14% | inhibition of growth at 10 µM (A498): 37% | inhibition of growth at 10 µM (MCF7): 33% | inhibition of growth at 10 µM (SF-539): 70% | inhibition of growth at 10 µM (NCI-H522): 52% | inhibition of growth at 10 µM (HL-60(TB)): 27% | inhibition of growth at 10 µM (OVCAR-5): < 10% | inhibition of growth at 10 µM (T47D): 47% | inhibition of growth at 10 µM (MDA-MB-231): 66% | inhibition of growth at 10 µM (SK-OV-3): 44% | inhibition of growth at 10 µM (RXF 393): 12% | inhibition of growth at 10 µM (SN12C): 16% | inhibition of growth at 10 µM (SNB-19): 12% | inhibition of growth at 10 µM (BT-549): 13%

O=C(CSc1nc2ccccc2c(=O)n1CCc1ccccc1)Oc1ccccc1
inhibition of growth at 10 µM (A549): 12% | inhibition of growth at 10 µM (MOLT-4): 23% | inhibition of growth at 10 µM (Malme-3M): 16% | inhibition of growth at 10 µM (SW-620): < 10% | inhibition of growth at 10 µM (A498): 18% | inhibition of growth at 10 µM (MCF7): 15% | inhibition of growth at 10 µM (SF-539): < 10% | inhibition of growth at 10 µM (NCI-H522): 37% | inhibition of growth at 10 µM (HL-60(TB)): 11% | inhibition of growth at 10 µM (OVCAR-5): < 10% | inhibition of growth at 10 µM (T47D): 14% | inhibition of growth at 10 µM (MDA-MB-231): 15% | inhibition of growth at 10 µM (SK-OV-3): 28% | inhibition of growth at 10 µM (RXF 393): < 10% | inhibition of growth at 10 µM (SN12C): 16% | inhibition of growth at 10 µM (SNB-19): < 10% | inhibition of growth at 10 µM (BT-549): < 10%

O=C(CSc1nc2ccccc2c(=O)n1CCc1ccccc1)Nc1ccc(F)cc1
inhibition of growth at 10 µM (A549): 23% | inhibition of growth at 10 µM (MOLT-4): 26% | inhibition of growth at 10 µM (Malme-3M): 11% | inhibition of growth at 10 µM (SW-620): < 10% | inhibition of growth at 10 µM (A498): 10% | inhibition of growth at 10 µM (MCF7): 18% | inhibition of growth at 10 µM (SF-539): < 10% | inhibition of growth at 10 µM (NCI-H522): 31% | inhibition of growth at 10 µM (HL-60(TB)): 25% | inhibition of growth at 10 µM (OVCAR-5): < 10% | inhibition of growth at 10 µM (T47D): 25% | inhibition of growth at 10 µM (MDA-MB-231): 22% | inhibition of growth at 10 µM (SK-OV-3): 25% | inhibition of growth at 10 µM (RXF 393): 13% | inhibition of growth at 10 µM (SN12C): 19% | inhibition of growth at 10 µM (SNB-19): < 10% | inhibition of growth at 10 µM (BT-549): 10%

COc1cc(NC(=O)CSc2nc3ccccc3c(=O)n2CCc2ccccc2)cc(OC)c1OC
inhibition of growth at 10 µM (A549): 76% | GI50 [1]: 3.3 µM | TGI [1]: 76.6 µM | GI50 [2]: 2.55 µM | TGI [2]: 52 µM | inhibition of growth at 10 µM (Malme-3M): 59% | GI50 [3]: > 100 µM | TGI [3]: > 100 µM | inhibition of growth at 10 µM (SW-620): 52% | inhibition of growth at 10 µM (A498): > 100% | GI50 [4]: 2.73 µM | TGI [4]: 13.5 µM | CC50 [4, 10]: 75 µM | inhibition of growth at 10 µM (MCF7): 49% | inhibition of growth at 10 µM (SF-539): > 100% | GI50 [5]: 1.77 µM | TGI [5]: 3.63 µM | GI50 [6]: 4.98 µM | TGI [6]: > 100 µM | CC50 [6, 10]: > 100 µM | inhibition of growth at 10 µM (NCI-H522): > 100% | inhibition of growth at 10 µM (OVCAR-5): 35% | inhibition of growth at 10 µM (T47D): > 100% | inhibition of growth at 10 µM (MDA-MB-231): > 100% | inhibition of growth at 10 µM (SK-OV-3): > 100% | inhibition of growth at 10 µM (RXF 393): 55% | inhibition of growth at 10 µM (SN12C): 75% | GI50 [7]: 2.04 µM | TGI [7]: 43.1 µM | CC50 [7, 10]: > 100 µM | GI50 [8]: 2.02 µM | TGI [8]: > 100 µM | CC50 [8, 10]: > 100 µM | inhibition of growth at 10 µM (SNB-19): 73% | GI50 [9]: 2.77 µM | TGI [9]: 44.1 µM | inhibition of growth at 10 µM (BT-549): > 100%
